US20160017326A1, “MICRORNAS AS FUNCTIONAL MEDIATORS AND BIOMARKERS OF BONE METASTASIS” (THE TRUSTEES OF PRINCETON UNIVERSITY, priority 2013, published 2016)

How the values were obtained:
Balb/c mice = assay: Systemic pre-miRNA treatment of healthy mice: X-ray, microCT, histology; assay type: in vivo, mouse; settings: for osteoclast activity in vivo: intravenous injection; for number of osteoclasts relative to bone surface area (TRAP): 10 μg pre-miRNA i.v. weekly for four weeks
Source text: Hindlimb bones were excised from mice at the end point of each experiment, immediately following X-ray and BLI. Hind limb bones were fixed in 10% neutral-buffered formalin, washed and decalcified in a solution of 10% EDTA for 2 weeks. One limb from each mouse was stored in 70% ethanol for μCT analysis and Von Kossa staining, while the other limb was embedded in paraffin for hematoxylin and eosin (H&E), tartrate-resistant acid phosphatase (TRAP), or immunohistochemical staining. Non-decalcified sections were embedded in resin using the Osteo-bed Bone Embedding Kit (Sigma Aldrich, EM0200) before sectioning, followed by Von Kossa staining. Briefly, sections were rehydrated to H2O, followed by submersion in 1% silver nitrate and exposure to UV light for 5 minutes. Sections were then incubated in 2.5% Sodium Thiosulphate, followed by counterstaining with Nuclear Fast Red and dehydration through Xylene. Histomorphometric analysis was performed on H&E stained bone metastasis sections using the Zeiss Axiovert 200 microscope and the AxioVision software version 4.6.3 SP1. For quantitative analysis of lesion area, a 5× objective was used to focus on the tumor region of interest and images were acquired using an AxioCamICc3 camera set to an exposure of 50 ms. Lesions that were larger than the field of view were quantified by acquiring multiple images to encompass the entire lesion and combined in Adobe Photoshop CS5. Lesion area was quantified by outlining the region(s) of interest and quantifying lesion area. Osteoclast number was assessed as multinucleated TRAP^+ cells along the tumor-bone interface and reported as number/mm of interface as previously reported (Sethi et al., 2011). Immunohistochemical analysis was performed with heat-induced antigen retrieval and an osteocalcin antibody (ABcam, AB93876). A biotinylated secondary antibody was used with Vectastain ABC Kit (Vector Laboratories) and DAB detection kit (Zymed) to reveal the positively stained cells; nuclei were counterstained with hematoxylin
Anesthetized mice were placed on singlewrapped films (X-OMAT AR, Eastman Kodak) and exposed to X-ray radiography at 35 kV for 15 s using a MX-20 Faxitron instrument. Films were developed using a Konica SRX-101A processor. Changes in bone remodeling and osteolytic lesions (radiolucent lesions) in the hindlimbs of mice were identified and quantified using the ImageJ software (National Institutes of Health)
Femurs and tibias were scanned using the INVEON PET/CT (Siemens Healthcare) at the Preclinical Imaging Shared Resource of Cancer Institute of New Jersey. The X-Ray tube settings were 80 kV and 500 μA and images were acquired at the highest resolution without CCD binning, resulting in a voxel size of 9.44 μm. A 0.66° rotation step through a 195° angular range with 6500 msec exposure was used. The images were reconstructed with Beam Hardening Correction and Hounsfield calibration before being analyzed using the INVEON Research Workplace software (Siemens Healthcare). After processing with a 3D Gaussian filter to reduce noise ROI's were manually segmented that corresponded to the cortical and trabecular bone regions. Cortical regions of interest comprised of 470 μm thick regions (50 slices, 9.4 μm thickness for each slice) located 3 mm distal to the growth plate, while 300 μm thick trabecular sections began 0.27 mm distal to the growth plate.
To evaluate the capacity for these miRNAs to inhibit mouse osteoclast function in vivo, 10 μg of pre-miRNA were injected into the lateral tail-vein of Balb/c mice weekly for four weeks. […] FIG. 6A illustrates representative X-ray, μCT and histological images for TRAP, H&E, Von Kossa, or osteocalcin staining of bones from mice treated with miR-33a, miR-133a, miR-141, miR-190 and miR-219 compared to non-treated control. Regions of interest for trabecular and cortical bone scan and analysis are marked by dashed lines. Scale bar indicates 200 μm, n=6. […]

[1] = test system: Pu.1, Nfatc1, Ctsk in RAW264.7 cells; assay: Western blot of Pu.1, Nfatc1, Ctsk after miRNA transfection and RANKL; assay type: cell-based, murine; settings: transient miRNA transfection, 50 ng/ml RANKL
Protocol: SDS lysis buffer (0.05 mM Tris-HCl, 50 mM BME, 2% SDS, 0.1% Bromophenol blue, 10% glycerol) was used to collect protein from cells. Samples were sonicated and heat denatured protein was equally loaded, separated on a 10% SDS-page gel, transferred onto a pure nitrocellulose membrane (BioRad), and blocked with 5% milk. Primary antibodies for immunoblotting included: anti-IκBα (1:1000 dilution, Cell signaling, 44D4), anti-p-p65 (1:500 dilution, Santa Cruz Biotechnology), anti-Pu.1 (5 μg/ml, Abcam, AB88082), anti-Nfatc1 (1 μg/ml, Abcam, AB25916), anti-Ctsk (4 μg/ml, Abcam, AB19027), anti-β-actin (1:5000 dilution, ABcam), for loading control. Membranes were incubated with horseradish peroxidase (HRP)-conjugated anti-mouse secondary antibody (1:2000 dilution, GE Healthcare) or anti-rabbit secondary antibody (1:2000 dilution, GE Healthcare) for 1 h and chemiluminescence signals were detected by ECL substrate (GE Healthcare).
To better examine the capacity of the miRNAs to inhibit osteoclast differentiation, osteoclast markers were examined in RAW264.7 cells transfected with the miRNA of interest, followed by RANKL treatment. FIG. 5F illustrates Western blot analysis for Pu.1, Nfatc1, or Ctsk in RAW264.7 cells after transient transfection with indicated miRNA and treatment with 50 ng/ml RANKL. Data in the figure represent average ±SEM; p values were based on Student's t-test.

RAW264.7 cells = assay: In vitro bone resorption assay on bovine bone slices; assay type: cell-based, murine; settings: miRNA transfection, 50 ng/ml RANKL, relative to control cells
Protocol: 5×10^4 pre-osteoclast cells were seeded onto 1 mm thick slices of bovine bone cut using a diamond saw and sterilized by immersion in 70% ethanol. Cells were cultured for 10 days as indicated in 6-well plates, transferred to fresh plates and washed to remove osteoclasts. Bone slices were stained in a solution of 1% toludine blue in 0.5% sodium tetraborate, destained in PBS plus 1% Triton X-100, and imaged by light microscopy.
In vitro bone resorption assay was then used to measure the effect of ectopic miRNA expression on osteoclast activity. […] Referring to this figures, scale bar represents 200 μm. Results were statistically significant with p<0.01 (**) and p<0.001 (***). […] Since these miRNAs may inhibit osteoclast differentiation or function by targeting different mRNAs, the repression of osteoclast differentiation was further examined using combinations of inhibitory miRNAs. Given that transient transfection with 10 pM of miRNA precursors was sufficient to inhibit up to approximately 90% of osteoclast differentiation, RAW264.7 cells were treated with a combination of miRNAs at a reduced concentration of 1 pM total precursors.

| Substance | osteoclast activity in vivo (Balb/c mice) | expression of Pu.1, Nfatc1, Ctsk (Western blot) [1] | bone resorption (osteoclast activity) (RAW264.7 cells) | number of osteoclasts relative to bone surface area (TRAP) (Balb/c mice) |
| --- | --- | --- | --- | --- |
| miR-133a: miRNA, SEQ ID NO: 61; delivered as pre-miRNA precursor; targets Mitf and Mmp14 (UUUGGUCCCCUUCAACCAGCUA; delivered as pre-miRNA precursor, chemistry not given here; listed as Homo sapiens) | significantly reduced | inhibited early osteoclast differentiation, with minimal expression of Nfatc1 | dramatically limited osteoclast activity | – |
| miR-141: miRNA, SEQ ID NO: 69; delivered as pre-miRNA precursor; targets Mitf and Calcr (UAACACUGUCUGGUAACGAUGU; delivered as pre-miRNA precursor, chemistry not given here; listed as Homo sapiens) | significantly reduced | inhibited early osteoclast differentiation, with minimal expression of Nfatc1 | dramatically limited osteoclast activity | significant decrease |
| miR-190: miRNA, SEQ ID NO: 64; delivered as pre-miRNA precursor; targets Calcr (UGAUAUGUUUGAUAUAUUAGGU; delivered as pre-miRNA precursor, chemistry not given here; listed as Homo sapiens) | significantly reduced | expressed Pu.1 and Nfatc1, but not Ctsk | dramatically limited osteoclast activity | – |
| miR-219: miRNA, SEQ ID NO: 66; delivered as pre-miRNA precursor; targets Mitf and Traf6 (UGAUUGUCCAAACGCAAUUCU; delivered as pre-miRNA precursor, chemistry not given here; listed as Homo sapiens) | significantly reduced | inhibited early osteoclast differentiation, with minimal expression of Nfatc1 | dramatically limited osteoclast activity | significant decrease |
